Measured values as given in patent publication US9205089B2, “Layer processing for pharmaceuticals” (Massachusetts Institute of Technology, priority 2011, dated 2015).
Values belong to the compound of their own block, whether it stands above or below them.

Columns and labels:
Assay type in all cases: physicochemical
[1] = HPLC purity of aliskiren in Aliskiren/HPMC layers under different drying conditions
Procedure: (§1) Water content was measured using a […] volumetric KF titration from Mettler Toledo. […] […] drug purity was verified by Agilent […] series high performance liquid chromatography (HPLC). All analyses were carried out in triplicate. […] In order to confirm the chemical stability of the drug, HPLC was used. Different experiments were carried out to examine the level of degradation of aliskiren as the drying temperature and time increased. […] The highest allowable drying temperature was set to be 70° C. At 70° C., 60 min was the minimum drying time required to have layers that peel easily and that contain solvent content under regulatory requirements (ethanol<0.5% and water %<0.5%). The layers were stored in a vacuum desiccator overnight to remove excess solvent, and then sealed under vacuum for storage and further characterization.

[2] = Solvent inspection of dried layers after storage in desiccator overnight
Procedure: as §1

[3] = Stability test of […]/HPMC thin layer tablets stored at 40° C., 75% R.H. (HPLC); conditions: Pure ALISKIREN (starting drug substance)
Procedure: Tablet forming was done by Instron and a force of up to 25 kN (9 mm diameter die) was recorded. The as-made thin layer tablets are then coated by Opadry AMB for 60 min, with the final coating taking up 10% of the tablet weight. Every 30 tablets were stored in a plastic vial of about 40 ml in volume together with a small standard drying bag. Vials were sealed using aluminum foil and placed at 40° C. for 75% R.H. for 1 month or 3 months. Samples of Aliskiren/HPMC thin layer tablets were tested by HPLC after peeling off the blue coating materials to avoid cross contamination. […] Water content was measured using a […] volumetric KF titration from Mettler Toledo. […] drug purity was verified by Agilent […] series high performance liquid chromatography (HPLC). All analyses were carried out in triplicate. […] The as-obtained tablets were then coated by Opadry AMB and placed at 40° C. for 75% R.H. for 1-month or 3-months stability tests.

[4] = DSC glass transition of rapid quench 50% ACM layers; conditions: 50% ACM loading, DSC 10° C./min
Procedure: All analyses were carried out in triplicate.
Most thin layer drug products are initially amorphous, but tend to crystallize slowly over time. Time and material consuming storage experiments are usually required to study the stability of amorphous drug candidate. It is necessary to predict the amorphous stability of drug candidates early in the formulation process. However, the glass transition temperature of the polymer is masked by the melting peak of the drug and little extra information can be extracted. The DSC heating curve for a sample quench cooled after being melted gave information on the glass transition temperature, the crystallisation exotherm, and the melting endotherm (FIG. 21). Samples were prepared by melting in closed DSC pans from R.T. to 200° C. at a rate of 10° C./min and subsequently cooled to −10° C. at a cooling rate of 10° C./min. The pure ACM phases were well studied by DSC; the amorphous form a glass transition peak at 24.8° C., a crystallization peak between 65° C. to 100° C., a solid state transition at about 130° C. from Form III to Form II, and a melting peak for Form II at about 158° C.

[5] = Crystallization time of ACM in layers with different excipients; conditions: 50% ACM layers

ALISKIREN purity % ([1]; drying 30° C., 180 min): 99.6%
One single impurity >0.2% ([1]; drying 30° C., 180 min): No
ALISKIREN purity % ([1]; drying 50° C., 90 min): 99.5%
One single impurity >0.2% ([1]; drying 50° C., 90 min): No
ALISKIREN purity % ([1]; drying 50° C., 180 min): 99.5%
One single impurity >0.2% ([1]; drying 50° C., 180 min): No
ALISKIREN purity % ([1]; drying 70° C., 30 min): 99.5%
One single impurity >0.2% ([1]; drying 70° C., 30 min): No
ALISKIREN purity % ([1]; drying 70° C., 60 min): 99.3%
One single impurity >0.2% ([1]; drying 70° C., 60 min): No
ALISKIREN purity % ([1]; drying 70° C., 90 min): 99.2%
One single impurity >0.2% ([1]; drying 70° C., 90 min): No
ALISKIREN purity % ([1]; drying 90° C., 30 min): 98.8%
One single impurity >0.2% ([1]; drying 90° C., 30 min): Yes
Solvent inspection (<0.5%) after stored in dessicator overnight ([2]; drying 30° C., 180 min): Yes
Solvent inspection (<0.5%) after stored in dessicator overnight ([2]; drying 50° C., 90 min): Yes
Solvent inspection (<0.5%) after stored in dessicator overnight ([2]; drying 50° C., 180 min): Yes
Solvent inspection (<0.5%) after stored in dessicator overnight ([2]; drying 70° C., 60 min): Yes
Solvent inspection (<0.5%) after stored in dessicator overnight ([2]; drying 70° C., 90 min): Yes
Purity of ALISKIREN [3]: 99.6%
Compound: COCCCOc1cc(C[C@@H](C[C@H](N)[C@@H](O)C[C@H](C(=O)NCC(C)(C)C(N)=O)C(C)C)C(C)C)ccc1OC [Aliskiren]

Tg [4]: 24.8 °C
Crystallization time [5]: <6 h
Compound: CC(=O)Nc1ccc(O)cc1 [ACM only, Acetaminophen]
